Assay results reported in US20220307066A1, “AN ENZYMATIC ASSAY TO MEASURE LONG-TERM ADHERENCE TO PRE EXPOSURE PROPHYLAXIS AND ANTIRETROVIRAL THERAPY” (University of Washington, priority 2019, published 2022).
Several values for one entry are separate records, joined by “and”; a condition that tells them apart may be missing. Equal entries are not always repeated. Where two headings read alike, the source gives them in different places.

How the values were obtained:
[1] = biological target: T1, HIV-1 RT (Human immunodeficiency virus type 1 group M subtype B, UniProt P04585); experiment: RESTRICT assay with TFV-DP spiked in diluted whole blood (0.25% final); assay type: biochemical; details: 0.25% blood, 100 nM dNTP, N = 4
T1 construct: Recombinant reverse transcriptase protein obtained through the NIH AIDS Reagent Program; purchased NIH AIDS Reagent Program, Division of AIDS, NIAID, NIH
Procedure: [sequence] assays were conducted with TFV-DP (166403-66-3, BOC Sciences Inc.) using 5 μL of DNA template, 5 μL of primer, 20 μL of dNTPs solution, 5 μL of TFV-DP, and 5 μL of HIV-1 RT. […] Serial dilutions of TFV-DP in buffer spanning a concentration range of 1-10,000 nM were prepared to span two orders of magnitude above and below the clinically relevant range for adherence measurement as described in pharmacokinetic studies. […] [sequence] assay optimization experiments were completed at 100, 300, 1560, and 6250 nM dNTP concentration.
Fluorescence from [sequence] assay data was normalized to allow comparison of data points gathered at different dNTP concentrations as follows,
HIV-negative, human whole blood (BioIVT, Westbury, N.Y.) was diluted in nuclease-free water (3098, Sigma) to lyse RBCs and reduce unwanted inhibition of RT activity by blood components such as immunoglobulins. Blood was mixed with the water by vortexing and incubating for 5 minutes to lyse RBCs.
Five μL of TFV-DP were spiked in 2% blood to 35 μL of master mix so that the final concentration of blood in the [sequence] assay was 0.25%. […]

[2] = biological target: T1, HIV-1 RT; experiment: RESTRICT assay with TFV-DP in buffer at different dNTP concentrations; assay type: biochemical; details: 100, 300, 1560, 6250 nM dNTP, fixed 50 to 1 dNTP to template
Procedure: Optimal assay conditions were determined for RT activity in order to minimize assay time and reagent concentration, using RT enzyme obtained through the NIH AIDS Reagent Program, Division of AIDS, NIAID, NIH (Le Grice, S. F. J.; et al., Purification and Characterization of Human Immunodeficiency Virus Type 1 Reverse Transcriptase. In Methods in Enzymology; DNA Replication; Academic Press, 1995, 262, 130-144). Reactions were carried out in a buffer containing: 60 mM Tris (77-86-1, Sigma), 30 mM KCl (7447-40-7, Sigma), 8 mM MgCl2 (7786-30-3, Sigma), and 10 mM dithiothreitol (20-265, Sigma) buffered to pH 8.0 using HCl (7647-01-0, Acros Organics).
The DNA template has a 20 nt primer binding site complementary to the M13 phage DNA primer AGAGTTTGATCCTGGCTCAG (Catalog, Integrated DNA Technologies, Coralville, Iowa), set forth herein as SEQ ID NO:1, followed by TTCA repeats with a total template length of 200 nt. The DNA template was designed using NUPACK software (Zadeh, J. N. et al., NUPACK: Analysis and Design of Nucleic Acid Systems. J. Comput. Chem. 2011, 32 (1), 170-173) to preferentially include T bases because TFV-DP is a deoxyadenosine triphosphate (dATP) analog and thus will bind to T's in the DNA template. […]
Fluorescence from RESTRICT assay data was normalized to allow comparison of data points gathered at different dNTP concentrations as follows, […]

[3] = biological target: T1, HIV-1 RT; experiment: RESTRICT assay on whole blood of study participants (clinical samples); assay type: biochemical
From the text: The RESTRICT assay detects TFV-DP drug concentrations based on its mechanism of action on HIV RT. See examples above and Olanrewaju AO, et al. An enzymatic assay for rapid measurement of antiretroviral drug levels. ACS Sens. April 2020. TFV-DP causes chain termination when HIV RT synthesizes viral double stranded DNA (dsDNA). The RESTRICT assay provides all the reagents required for dsDNA synthesis—a DNA template, primers, nucleotides, recombinant HIV RT enzyme, and appropriate buffers—and measures TFV-DP concentrations in a patient's blood using intercalating fluorescence dyes based on the extent of DNA synthesis. At low TFV-DP concentrations, full-length dsDNA is formed and binds to many intercalating dye molecules resulting in high fluorescence. Meanwhile, at high TFV-DP concentrations, DNA chain termination occurs resulting in dsDNA fragments that bind to few intercalating dye molecules resulting in low fluorescence. Thus, the fluorescence readout from the RESTRICT assay was used to estimate TFV-DP concentration in a patient's blood. […]
The RESTRICT assay was completed in 5 simple steps. […] Then 5 μL of 100 nM of HIV-1 RT was added to initiate the assay which was incubated at 37° C. for 30 min in a microplate reader (SpectraMax iD3, Molecular Devices). […]

[4] = in vivo
[5] = cited from earlier work

| Structure (SMILES) | Normalized fluorescence (%) ([1]; TFV-DP 85.4 nM (16.9 fmol/10^6 RBCs, low adherence, 1 dose per week)) | Normalized fluorescence (%) ([1]; TFV-DP 768 nM (152.3 fmol/10^6 RBCs, high adherence, 7 doses per week)) | IC50 of inhibition curve as dNTP concentration increases [2] | Median fluorescence, RESTRICT assay ([3]; samples containing <700 fmol/punch TFV-DP (N=14)) | Median fluorescence, RESTRICT assay ([3]; samples containing ≥700 fmol/punch TFV-DP (N=4)) | clinical range for TFV-DP adherence, concentration in whole blood [4] | Median TFV-DP concentrations in RBCs ([5]; depending on adherence, LC/MS) | accumulation in red blood cells (RBCs) ([5]; in vivo) | half-life ([5]; red blood cells) | half-life ([5]; plasma) | detectable for up to ([5]; urine) |
| --- | --- | --- | --- | --- | --- | --- | --- | --- | --- | --- | --- |
| CC(Cn1cnc2c(N)ncnc21)OCP(=O)(O)OP(=O)(O)OP(=O)(O)O (stereo in doubt) [TFV-DP, tenofovir diphosphate] | 89.0% | 57.5% | shift right, towards higher IC50 values | 51.3% | 31.9% | 75 to 850 nM | 15-170 fmol/10^6 RBCs | 25 fold | 408 h |  |  |
| C[C@H](Cn1cnc2c(N)ncnc21)OCP(=O)(O)O [TFV, tenofovir] |  |  |  |  |  |  |  |  |  | 15 h and 17 h | ≤ 7 days |
